Like-named read-outs stand apart in the source and are kept apart here. Values belong to the compound of their own block, whether it stands above or below them. Numbered stars: 1 amine (or outer) side, 2 acyl side, 3 side chain; on linkers, the order of the positions; unused ones are H or OH. Bridge positions count the residues as written; N and C are the ends. Square brackets hold non-standard residues; d marks the D form. Ends that are not written are not given here. Peptide text beside a SMILES is read from it. I, II: the chains in the order shown. CO(CH2CH2O)13CH2CH2CO = O=C(CCOCCOCCOCCOCCOCCOCCOCCOCCOCCOCCOCCOCCOCCC(=O)[*:2])[*:1]; CO(CH2CH2O)9CH2CH2CO = O=C(CCOCCOCCOCCOCCOCCOCCOCCOCCOCCC(=O)[*:2])[*:1]; NMeE = CN[C@@H](CCC(=O)O)C(=O)O
Key:
PDZ2 of PSD-95 = molecular target: T1, PDZ2 of PSD-95 (Homo sapiens, UniProt P78352); assay: FP heterologous competition binding assay; details: for Ki: FP competition, mean ± SEM, NA = no activity/affinity; for affinity to PDZ2, in words: FP assay
T1 construct: PDZ2 (residues 155-249); made in house; host or cells: E. coli BL21-DE3 pLysS
Description: (§1) Determined IC50 values may be converted to Ki values.^5 Suitable fluorophores include either 5-FAM or Cy5, which may be coupled to a tripeptide (KSG or CSG) linker attached to the N-terminus of the undecapeptide, to give 5-FAM-NR2B, Cy5-NR2B, 5-FAM-CRIPT and Cy5-CRIPT. The 5-FAM fluorophore may be attached to the undecapeptides by coupling with HATU. The Cy5 fluorophore may be conjugated to the undecapeptides by coupling Cy5-maleimide to the cysteine side chain of the tripeptide sequence CSG attached to the N-terminus of the peptide, as detailed in the Methodology section.
(§2) To measure the affinities between non-fluorescent peptides and PDZ domains, heterologous competition bindings assay were performed. This was done by adding increasing concentrations of peptide to a fixed concentration of Cy5-NR2B, 5-FAM-NR2B, Cy5-CRIPT or 5-FAM-CRIPT (50 nM) and PDZ (20 μM for PDZ1, 3 μM for PDZ2 and 1-2 and 5 μM for PDZ3) in the same TBS buffer and conditions as described above. FP values were then fitted to the general equation: Y=Bottom+(Top−Bottom)/[1[…](10̂^X-logIC50)], where X is the logarithmic value of peptide concentration. Hereby the IC50 value was obtained, which is used to calculate the theoretical competitive inhibition constant, Ki.^5
(§3) A convenient and reliable way to examine interactions between peptide analogues and PDZ domains is by using a fluorescence polarization (FP) assay. The three PDZ domains, PDZ1-3, of PSD-95 were expressed individually as set out above, while PDZ1-2 was also expressed as a tandem construct. […] IC50 values were then converted to Ki values.^5

PDZ1-2 tandem of PSD-95 = molecular target: T2, PDZ1-2 tandem of PSD-95 (Homo sapiens, UniProt P78352); assay: FP heterologous competition binding assay; details: mean ± SEM
T2 construct: PDZ1-2 (residues 61-249) tandem; made in house; host or cells: E. coli BL21-DE3 pLysS
Description: as §1, §2, §3

PDZ1 of PSD-95 = molecular target: T3, PDZ1 of PSD-95 (Homo sapiens, UniProt P78352); assay: FP heterologous competition binding assay; details: for Ki: FP competition, mean ± SEM, NA = no activity/affinity
T3 construct: PSD-95 PDZ1 (residues 61-151); made in house; host or cells: E. coli BL21-DE3 pLysS
Description: as §1, §2, §3

PDZ3 of PSD-95 = molecular target: T4, PDZ3 of PSD-95 (Homo sapiens, UniProt P78352); assay: FP heterologous competition binding assay; details: FP competition; mean ± SEM; NA = no activity/affinity
T4 construct: PDZ3 (residues 309-401); made in house; host or cells: E. coli BL21-DE3 pLysS
Description: as §1, §2, §3

[1] = Human blood plasma stability assay; format: in vitro ADME
Experimental: In this assay, the half-life (T1/2) of a compound in blood plasma is measured in vitro, whereby its susceptibility to degradation by proteases, peptidases and general plasma contents is quantified.
Compounds of interest were dissolved in human blood plasma (270 μl; 3H Biomedical, Sweden, cat no 1300-1-P50) to a concentration of 0.25 mM (30 μL of 2.5 mM) and incubated at 37° C. Aliquots (30 μl) were removed at various time intervals (0, 5, 10, 20, 40, 80, 160, 320, 960, 1280, 2550, 4560 and 7240 min) and quenched with 60 μL trichloroacetic acid (aq., 5%). The aliquots were vortexed, and incubated for at least 15 min, at 4° C. prior to centrifugation at 18,000 g for 2 min and the supernatant was analyzed by RP-HPLC to quantify the remaining compound (absorbance at 218 nm).

Compound: CC(C)[C@H](NC(=O)[C@H](CC(=O)O)NC(=O)[C@H](CO)NC(=O)[C@H](CCC(=O)O)NC(=O)CCOCCOCCOCCOCCOCCOCCOCCOCCOCCC(=O)N[C@@H](CCC(=O)O)C(=O)N[C@@H](CO)C(=O)N[C@@H](CC(=O)O)C(=O)N[C@H](C(=O)O)C(C)C)C(=O)O [Compound 85] (I: ESDV-OH / II: ESDV-OH; linker I:N-II:N via CO(CH2CH2O)9CH2CH2CO; C-terminus assumed)
- Ki (PDZ1-2 tandem of PSD-95): 1 ± 0.05 µM

Compound: CC(C)[C@H](NC(=O)[C@H](CC(=O)O)NC(=O)[C@H](CO)NC(=O)[C@@H](N)CCC(=O)O)C(=O)O [ESDV (8), ESDV] (H-ESDV-OH; N-terminus and C-terminus assumed)
- fold increase in Ki (loss of affinity) compared to NR2B peptide (1), PDZ1 (PDZ1 of PSD-95): 3.1 fold
- Ki (PDZ1 of PSD-95): 56 ± 2.4 µM
- Ki (PDZ1-2 tandem of PSD-95): 28 ± 2.9 µM
- fold increase in Ki (loss of affinity) compared to NR2B peptide (1), PDZ2 (PDZ2 of PSD-95): 6.8 fold
- Ki (PDZ2 of PSD-95): 28 ± 0.92 µM

Compound: CC(C)[C@H](NC(=O)[C@H](C)NC(=O)[C@@H](NC(=O)[C@@H](N)CCC(=O)O)[C@@H](C)O)C(=O)O [ETAV (51), ETAV]
- Ki (PDZ1 of PSD-95): 29 ± 1.6 µM
- Ki (PDZ2 of PSD-95): 22 ± 0.92 µM
- Ki (PDZ3 of PSD-95): 260 ± 20 µM

Compound: EMeTDV ([NMeE]TDV) [Compound 36]
- fold increase in affinity (more potent) compared to NR2B peptide (1), PDZ1 (PDZ1 of PSD-95): ca. 3 fold
- affinity to PDZ2, in words (PDZ2 of PSD-95): only slightly less potent

Compound: IESDV-PEG4 [IESDV-PEG4 (91)]
- fold increase in half life compared to non-pegylated peptide 7 ([1]; human): about 10 fold
- Blood plasma half life (T1/2) ([1]; human, plasma): 10 h

Compound: SDV
- fold increase in Ki (loss of affinity) compared to NR2B peptide (1), PDZ1 (PDZ1 of PSD-95): > 20 fold
- fold increase in Ki (loss of affinity) compared to NR2B peptide (1), PDZ2 (PDZ2 of PSD-95): > 30 fold

Compound: YGRKKRRQRRRKLSSIESDV [Tat-NR2B (3), reference compound] [listing 1 of 2 here]
- half-life at […] ([1]; human blood plasma, 37° C., 0.25 mM, read-out: Blood plasma half life (T1/2)): 24.5 h

Compound: YGRKKRRQRRRKLSSIESDV [Tat-NR2B (3), reference compound] [listing 2 of 2 here]
- Ki (PDZ1-2 tandem of PSD-95): 9.8 ± 0.35 µM

The remaining lines, values ahead:

- Ki (PDZ2 of PSD-95): 22 ± 0.18 µM
Compound: CC(C)[C@H](NC(=O)[C@H](CC(=O)O)NC(=O)[C@H](CO)NC(=O)[C@H](CCC(=O)O)NC(=O)CCOCCOCCOCCOCCOCCOCCOCCOCCOCCOCCOCCOCCOCCC(=O)N[C@@H](CCC(=O)O)C(=O)N[C@@H](CO)C(=O)N[C@@H](CC(=O)O)C(=O)N[C@H](C(=O)O)C(C)C)C(=O)O [Compound 84] (I: ESDV-OH / II: ESDV-OH; linker I:N-II:N via CO(CH2CH2O)13CH2CH2CO; C-terminus assumed)

- half-life at […] ([1]; human, plasma, Blood plasma half life (T1/2)): 0.533 h
Compound: CC[C@H](C)[C@H](N)C(=O)N[C@@H](C)C(=O)N[C@H](C(=O)N(C)[C@@H](C)C(=O)N[C@H](C(=O)O)C(C)C)[C@@H](C)O [IATAMeV (89), IATAMeV]

- Ki (PDZ1 of PSD-95): 21 ± 1.1 µM
Compound: CC(C)[C@H](NC(=O)[C@H](C)NC(=O)[C@@H](NC(=O)[C@H](CCC(N)=O)NCCC1CCCCC1)[C@@H](C)O)C(=O)O [QTAV (72)]

- fold increase in Ki (loss of affinity) compared to NR2B peptide (1), PDZ1 (PDZ1 of PSD-95): ca. 2 fold
- Ki (PDZ1 of PSD-95): 42 µM
- fold increase in Ki (loss of affinity) compared to NR2B peptide (1), PDZ2 (PDZ2 of PSD-95): ~9 fold
- Ki (PDZ2 of PSD-95): 37 µM
Compound: CC(C)[C@H](NC(=O)[C@H](C)NC(=O)[C@@H](N)[C@@H](C)O)C(=O)O [TAV (49), TAV] (H-Thr-Ala-Val-OH; N-terminus and C-terminus assumed)

- fold increase in affinity (more potent) compared to NR2B peptide (1), PDZ1 (PDZ1 of PSD-95): ca. 3 fold
- affinity to PDZ2, in words (PDZ2 of PSD-95): only slightly less potent
Compound: EMeTQV ([NMeE]TQV) [Compound 39]

— patent US20160176924A1, “MODIFIED PEPTIDES AS POTENT INHIBITORS OF THE PSD-95/NMDA RECEPTOR INTERACTION” (priority 2008, published 2016)
